The results in this text go back to patent US8569344B2, “N-piperidinyl acetamide derivatives as calcium channel blockers” (Zalicus Pharmaceuticals Ltd., priority 2008, dated 2013).

One may read the IC50 as the concentration needed to halve the response being measured.

A value given as a limit tells only on which side of the number the result lay.

The assay deals with T1, human α1G T-type channels (Homo sapiens, UniProt O43497).
T1 construct: expressed in transfected cells; host or cells: HEK 293
T1 sequence (O43497 whole entry): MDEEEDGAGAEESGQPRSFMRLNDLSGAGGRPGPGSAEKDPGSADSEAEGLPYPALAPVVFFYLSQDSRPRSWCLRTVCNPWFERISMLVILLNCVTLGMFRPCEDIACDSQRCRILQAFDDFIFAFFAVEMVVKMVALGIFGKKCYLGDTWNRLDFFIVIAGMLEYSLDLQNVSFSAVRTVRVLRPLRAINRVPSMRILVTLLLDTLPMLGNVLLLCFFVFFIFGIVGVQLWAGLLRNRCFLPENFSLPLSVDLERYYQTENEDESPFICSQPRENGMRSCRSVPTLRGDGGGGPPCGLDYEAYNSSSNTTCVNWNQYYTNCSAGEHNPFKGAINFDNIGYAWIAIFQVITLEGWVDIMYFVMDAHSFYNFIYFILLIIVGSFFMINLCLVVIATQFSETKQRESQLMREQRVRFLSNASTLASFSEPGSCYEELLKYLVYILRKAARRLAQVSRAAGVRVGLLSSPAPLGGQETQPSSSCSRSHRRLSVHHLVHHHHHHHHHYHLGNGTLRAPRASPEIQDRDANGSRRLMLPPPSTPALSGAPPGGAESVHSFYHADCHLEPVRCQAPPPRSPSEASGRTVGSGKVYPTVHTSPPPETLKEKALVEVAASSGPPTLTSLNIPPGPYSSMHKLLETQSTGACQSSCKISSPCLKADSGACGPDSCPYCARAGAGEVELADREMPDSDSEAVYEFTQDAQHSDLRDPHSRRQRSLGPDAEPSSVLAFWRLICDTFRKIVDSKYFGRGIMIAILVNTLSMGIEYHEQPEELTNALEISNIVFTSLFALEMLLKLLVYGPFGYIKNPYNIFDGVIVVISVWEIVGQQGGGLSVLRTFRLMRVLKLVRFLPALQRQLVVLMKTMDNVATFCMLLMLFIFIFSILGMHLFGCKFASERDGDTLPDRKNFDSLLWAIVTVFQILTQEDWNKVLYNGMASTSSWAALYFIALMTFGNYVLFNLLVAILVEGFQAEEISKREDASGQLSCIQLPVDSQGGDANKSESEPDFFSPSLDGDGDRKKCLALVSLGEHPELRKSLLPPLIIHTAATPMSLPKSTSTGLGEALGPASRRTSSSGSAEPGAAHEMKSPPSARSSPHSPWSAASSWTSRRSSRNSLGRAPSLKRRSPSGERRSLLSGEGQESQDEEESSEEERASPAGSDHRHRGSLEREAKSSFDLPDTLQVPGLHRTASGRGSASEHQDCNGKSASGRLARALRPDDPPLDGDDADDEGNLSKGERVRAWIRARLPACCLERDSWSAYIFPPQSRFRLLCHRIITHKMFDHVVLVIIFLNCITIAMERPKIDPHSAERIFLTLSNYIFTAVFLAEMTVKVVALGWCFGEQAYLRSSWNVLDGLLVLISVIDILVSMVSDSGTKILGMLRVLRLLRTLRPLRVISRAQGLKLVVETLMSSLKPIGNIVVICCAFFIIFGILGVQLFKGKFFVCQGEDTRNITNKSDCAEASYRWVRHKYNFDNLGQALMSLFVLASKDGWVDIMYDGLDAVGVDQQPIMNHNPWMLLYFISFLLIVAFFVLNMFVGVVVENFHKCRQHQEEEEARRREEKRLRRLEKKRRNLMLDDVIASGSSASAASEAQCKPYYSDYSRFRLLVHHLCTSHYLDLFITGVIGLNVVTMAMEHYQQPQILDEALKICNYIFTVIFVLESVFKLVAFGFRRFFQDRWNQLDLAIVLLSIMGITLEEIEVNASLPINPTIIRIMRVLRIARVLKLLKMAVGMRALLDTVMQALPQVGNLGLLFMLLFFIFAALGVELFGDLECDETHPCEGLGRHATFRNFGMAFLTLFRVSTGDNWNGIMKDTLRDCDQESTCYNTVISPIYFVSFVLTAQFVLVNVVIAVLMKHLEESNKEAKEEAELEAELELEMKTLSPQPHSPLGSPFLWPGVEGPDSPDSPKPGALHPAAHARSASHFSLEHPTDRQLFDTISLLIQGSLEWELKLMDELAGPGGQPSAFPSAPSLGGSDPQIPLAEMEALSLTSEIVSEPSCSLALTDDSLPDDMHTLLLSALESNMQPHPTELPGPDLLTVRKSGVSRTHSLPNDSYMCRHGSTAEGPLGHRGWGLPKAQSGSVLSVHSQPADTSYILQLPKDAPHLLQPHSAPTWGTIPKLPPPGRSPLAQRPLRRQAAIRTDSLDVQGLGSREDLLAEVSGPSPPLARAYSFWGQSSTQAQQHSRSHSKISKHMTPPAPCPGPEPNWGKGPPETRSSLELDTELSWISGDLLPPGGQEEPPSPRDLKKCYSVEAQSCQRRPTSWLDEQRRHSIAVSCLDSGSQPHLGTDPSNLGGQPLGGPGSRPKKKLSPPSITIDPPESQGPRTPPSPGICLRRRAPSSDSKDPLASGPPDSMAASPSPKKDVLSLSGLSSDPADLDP
Kind of assay: T-type calcium channel block, whole cell patch clamp in HEK cells (α1G). It is filed as cell-based. As to conditions: HEK cells, patch clamp, mainly non-inactivated protocol; values above 10 μM shown as 10 μM, below 0.30 μM shown as 0.30 μM; read-out: T-type Calcium Channel Block α1G IC50. As for the experimental part: T-type calcium channel blocking activity was assayed in human embryonic kidney cells, HEK 293, stably transfected with the T-type calcium channel subunits. Briefly, cells were cultured in Dulbecco's modified eagle medium (DMEM) supplemented with 10% fetal bovine serum, 200 U/ml penicillin and 0.2 mg/ml streptomycin at 37° C. with 5% CO2. At 85% confluency cells were split with 0.25% trypsin/1 mM EDTA and plated at 10% confluency on glass coverslips. […] Fresh DMEM was supplied and the cells transferred to 28° C./5% CO2. Cells were incubated for 1 to 2 days prior to whole cell recording.
Standard patch-clamp techniques were employed to identify blockers of T-type currents. Briefly, previously described HEK cell lines stably expressing human α1G, α1H and α1I T-type channels were used for all the recordings (passage #: 4-20, 37° C., 5% CO2). Whole cell patch clamp experiments were performed using an Axopatch 200B amplifier (Axon Instruments, Burlingame, Calif.) linked to a personal computer equipped with pCLAMP software. Data were analyzed using Clampfit (Axon Instruments) and SigmaPlot 4.0 (Jandel Scientific). To obtain T-type currents, plastic dishes containing semi-confluent cells were positioned on the stage of a ZEISS AXIOVERT S100 microscope after replacing the culture medium with external solution (see below). Whole-cell patches were obtained using pipettes (borosilicate glass with filament, O.D.: 1.5 mm, I.D.: 0.86 mm, 10 cm length), fabricated on a SUTTER P-97 puller with resistance values of ˜5 MΩ (see below for internal solution).
In the non-inactivating protocol, the holding potential is set at −110 mV and with a pre-pulse at −100 mV for 1 second prior to the test pulse at −40 mV for 50 ms.
Test compounds were dissolved in external solution, 0.1-0.01% DMSO. After ˜10 min rest, they were applied by gravity close to the cell using a WPI microfil tubing. The “non-inactivated” pre-pulse was used to examine the resting block of a compound. The “inactivated” protocol was employed to study voltage-dependent block. […] Values are shown in μM and values above 10 μM are simply represented as 10 μM.
Background: In patch-clamp work, channel activity is measured electrically.
As for `CCS(=O)(=O)NC(CN1CCC(CC(=O)NC(c2cccc(F)c2)c2cccc(F)c2)CC1)C(C)(C)C` (stereo not drawn) [Compound 220, N-(bis(3-fluorophenyl)methyl)-2-(1-(2-(ethylsulfonamido)-3,3-dimethylbutyl)piperidin-4-yl)acetamide], the IC50 is 6910 nM.
Next, `COC(=O)NC(CN1CCC(CC(=O)NCc2cc(Cl)cc(Cl)c2)CC1)C(C)(C)C` (stereo not drawn) [Compound 223, methyl 1-(4-(2-(3,5-dichlorobenzyl-amino)-2-oxoethyl)piperidin-1-yl)-3,3-dimethylbutan-2-ylcarbamate]: 8150 nM.
Next, `N#CC1CCN(CC(=O)N2CCC(CNC(=O)c3cc(C(F)(F)F)cc(C(F)(F)F)c3)CC2)CC1` [Compound 259, N-((1-(2-(4-cyanopiperidin-1-yl)acetyl)piperidin-4-yl)methyl)-3,5-bis(trifluoromethyl)benzamide]: above 10000 nM.
With `O=C(NCC1CCN(C(=O)CNCCCN2CCOCC2)CC1)c1cc(F)cc(C(F)(F)F)c1` [Compound 270, 3-fluoro-N-((1-(2-(3-morpholinopropylamino)acetyl)piperidin-4-yl)methyl)-5-(trifluoromethyl)benzamide], the IC50 is above 10000 nM.
On to `COc1ccc(C(=O)NCC2CCN(CCNS(=O)(=O)C(F)(F)F)CC2)cc1OC` [Compound 332, 3,4-dimethoxy-N-((1-(2-(trifluoromethylsulfonamido)ethyl)piperidin-4-yl)methyl)benzamide], for which the IC50 is above 10000 nM.
Consider `O=C(NCC1CCN(CCNS(=O)(=O)C2CC2)CC1)c1cc(F)cc(Cl)c1` [Compound 390, 3-chloro-N-((1-(2-(cyclopropanesulfonamido)ethyl)piperidin-4-yl)methyl)-5-fluoro-benzamide], for which the IC50 was below 300 nM.
Next, `Cc1cc(C)cc(C(=O)NCC2CCN(CCNC(=O)C3CCCC3)CC2)c1` [Compound 392, N-((1-(2-(cyclopentanecarboxamido)ethyl)piperidin-4-yl)methyl)-3,5-dimethyl-benzamide]: 2010 nM; `Cc1cc(F)cc(C(=O)NCC2CCN(CCNC(=O)C3CCCC3)CC2)c1` [Compound 393, N-((1-(2-(cyclopentanecarboxamido)ethyl)piperidin-4-yl)methyl)-3-fluoro-5-methylbenzamide]: 6040 nM.
Consider `O=C(NCC1CCN(CCNC(=O)C2CCCC2)CC1)c1cccc(Cl)c1` [Compound 394, 3-chloro-N-((1-(2-(cyclopentanecarboxamido)ethyl)piperidin-4-yl)methyl)benzamide], for which the IC50 is 4610 nM.
On to `O=C(NCC1CCN(CCNC(=O)C2CCCC2)CC1)c1cc(F)cc(F)c1` [Compound 395, N-((1-(2-(cyclopentanecarboxamido)ethyl)piperidin-4-yl)methyl)-3,5-difluoro-benzamide], for which the IC50 is above 10000 nM.
As for `COc1cc(F)cc(C(=O)NCC2CCN(CCNC(=O)C3CCCC3)CC2)c1` [Compound 396, N-((1-(2-(cyclopentanecarboxamido)ethyl)piperidin-4-yl)methyl)-3-fluoro-5-methoxybenzamide], the half-maximal inhibitory concentration (IC50) was determined as 2910 nM.
For `O=C(NCC1CCN(CCNC(=O)C2CCCC2)CC1)c1cc(F)cc(Cl)c1` [Compound 397, 3-chloro-N-((1-(2-(cyclopentanecarboxamido)ethyl)piperidin-4-yl)methyl)-5-fluoro-benzamide] the value was 1780 nM.
For `O=C(NCC1CCN(CCNC(=O)C2CCCC2)CC1)c1cccc(C(F)(F)F)c1` [Compound 398, N-((1-(2-(cyclopentanecarboxamido)ethyl)piperidin-4-yl)methyl)-3-(trifluoromethyl)benzamide], the IC50 turned out to be 3530 nM.
For `O=C(NCC1CCN(CCNC(=O)C2CCCC2)CC1)c1cccc(Br)c1` [Compound 400, 3-bromo-N-((1-(2-(cyclopentanecarboxamido)ethyl)piperidin-4-yl)methyl)benzamide], the IC50 was 1500 nM.
Turning to `O=C(NCC1CCN(CCNC(=O)C2CCCC2)CC1)c1cccc(OC(F)(F)F)c1` [Compound 401, N-((1-(2-(cyclopentanecarboxamido)ethyl)piperidin-4-yl)methyl)-3-(trifluoromethoxy)benzamide], the half-inhibitory concentration (IC50) came out at 910 nM.
For `O=C(NCC1CCN(CCNC(=O)C2CCCC2)CC1)c1cc(F)cc(C(F)(F)F)c1` [Compound 402, N-((1-(2-(cyclopentanecarboxamido)ethyl)piperidin-4-yl)methyl)-3-fluoro-5-(trifluoromethyl)benzamide] the value was 540 nM; for `CCOc1cc(OCC)cc(C(=O)NCC2CCN(CCNC(=O)C3CCCC3)CC2)c1` [Compound 403, N-((1-(2-(cyclopentanecarboxamido)ethyl)piperidin-4-yl)methyl)-3,5-diethoxybenzamide], 1110 nM; for `COc1cc(C(=O)NCC2CCN(CCNC(=O)C3CCCC3)CC2)cc(C(F)(F)F)c1` [Compound 404, N-((1-(2-(cyclopentanecarboxamido)ethyl)piperidin-4-yl)methyl)-3-methoxy-5-(trifluoromethyl)benzamide], 380 nM.
For `O=C(NCC1CCN(CCNC(=O)C2CCCC2)CC1)c1cc(Cl)cc(C(F)(F)F)c1` [Compound 405, 3-chloro-N-((1-(2-(cyclopentanecarboxamido)ethyl)piperidin-4-yl)methyl)-5-(trifluoromethyl)benzamide] the value was below 300 nM; for `O=C(NCC1CCN(CCNC(=O)C2CCCC2)CC1)c1cc(Cl)cc(Br)c1` [Compound 406, 3-bromo-5-chloro-N-((1-(2-(cyclopentanecarboxamido)ethyl)piperidin-4-yl)methyl)benzamide], below 300 nM; for `O=C(NCC1CCN(CCNC(=O)C2CCCC2)CC1)c1cc(Br)cc(C(F)(F)F)c1` [Compound 407, 3-bromo-N-((1-(2-(cyclopentanecarboxamido)ethyl)piperidin-4-yl)methyl)-5-(trifluoromethyl)benzamide], below 300 nM.
For `O=C(Cc1cc(C(F)(F)F)cc(C(F)(F)F)c1)NCC1CCN(CCNC(=O)C2CCCC2)CC1` [Compound 408, N-(2-(4-((2-(3,5-bis(trifluoromethyl)phenyl)acetamido)methyl)piperidin-1-yl)ethyl)cyclopentanecarboxamide] the value was 3360 nM; for `O=C(NCC1CCN(CCNC(=O)C2CCCC2)CC1)c1cc(Br)cc(Br)c1` [Compound 409, 3,5-dibromo-N-((1-(2-(cyclopentanecarboxamido)ethyl)piperidin-4-yl)methyl)benzamide], below 300 nM; for `CC(C)(C)NC(=O)N1CCC[C@H]1CN1CCC(CNC(=O)c2cc(F)cc(C(F)(F)F)c2)CC1` [Compound 410, (S)-N-tert-butyl-2-((4-((3-fluoro-5-(trifluoromethyl)benzamido)methyl)piperidin-1-yl)methyl)pyrrolidine-1-carboxamide], 1150 nM.
Regarding `CN(CC1CCN(CCNC(=O)NC(C)(C)C)CC1)C(=O)c1cc(F)cc(C(F)(F)F)c1` [Compound 411, N-((1-(2-(3-tert-butylureido)ethyl)piperidin-4-yl)methyl)-3-fluoro-N-methyl-5-(trifluoromethyl)benzamide], the IC50 is above 10000 nM.
Turning to `CN(CC1CCN(CCNC(=O)C(C)(C)C)CC1)C(=O)c1cc(F)cc(C(F)(F)F)c1` [Compound 412, 3-fluoro-N-methyl-N-((1-(2-pivalamidoethyl)piperidin-4-yl)methyl)-5-(trifluoromethyl)benzamide], the IC50 is above 10000 nM.
For `CN(CC1CCN(CCNC(=O)CC(C)(C)C)CC1)C(=O)c1cc(F)cc(C(F)(F)F)c1` [Compound 413, N-((1-(2-(3,3-dimethylbutanamido)ethyl)piperidin-4-yl)methyl)-3-fluoro-N-methyl-5-(trifluoromethyl)benzamide], the IC50 is above 10000 nM.
On to `CS(=O)(=O)N1CCC[C@H]1CN1CCC(CNC(=O)c2cc(F)cc(C(F)(F)F)c2)CC1` [Compound 416, (S)-3-fluoro-N-((1-((1-(methylsulfonyl)pyrrolidin-2-yl)methyl)piperidin-4-yl)methyl)-5-(trifluoromethyl)benzamide], for which the IC50 is above 10000 nM.
Take `CCS(=O)(=O)N1CCC[C@H]1CN1CCC(CNC(=O)c2cc(F)cc(C(F)(F)F)c2)CC1` [Compound 417]: the 50% inhibitory concentration (IC50) is 9490 nM.
Consider `O=C(NCC1CCN(C[C@@H]2CCCN2S(=O)(=O)C2CC2)CC1)c1cc(F)cc(C(F)(F)F)c1` [Compound 418, (S)-N-((1-((1-(cyclopropylsulfonyl)pyrrolidin-2-yl)methyl)piperidin-4-yl)methyl)-3-fluoro-5-(trifluoromethyl) benzamide], for which the IC50 was 2170 nM.
